Patent US20020052295A1, “Diacyl derivatives of propylene diamine having herbicidal activity” (priority 1999, published 2002)

Tests used:
Conditions in all cases: lowest tested rate giving 80% or greater inhibition, approx. 14 days after planting and treating, greenhouse
PANDI = test: Pre-emergence herbicidal activity on PANDI (fall panicum); assay type: in vivo, Panicum dichotomiflorum
Source text: (§1) All such uses, and the biological activity enabling such uses, are embraced by the term “herbicidal” herein. Tables 15 and 16 summarize results of tests conducted as described below to determine the pre-emergence herbicidal activity, in the form of a GR80 value, of illustrative compounds of this invention. […] Where herbicidal activity was evident but 80% inhibition was not achieved at the highest rate tested (typically 1000 g/ha), an asterisk (*) is shown in the following tables. Herbicidal activity evident in the form of symptoms of phytotoxicity, in the absence of at least 80% inhibition at any rate, is indicated in the tables by “phyto”. A blank cell in the following tables indicates no herbicidal or phytotoxic response at any rate tested.
(§2) The pre-emergence tests were conducted by the following procedure. Topsoil was sieved to pass through a 1.27 cm screen. Fertilizer was added to the topsoil and the mixture was then sterilized by heating. The topsoil mixture was placed in a pot and compacted to a depth of 1.0 to 1.25 cm from the top of the pot. Seeds of each of several monocotyledonous and dicotyledonous annual plant species were placed on top of the soil. Additional soil was subsequently placed over the seeds to level-fill the pot. A known amount of each test compound dissolved or suspended in an appropriate organic solvent was diluted with a 50:50 mix of acetone and water and applied to the surface of the soil. After treatment the plants were placed in a greenhouse with a 30/21° C. day/night temperature regime where they received 0.64 cm of overhead irrigation. All subsequent watering consisted of a light overhead mist and/or subirrigation as needed for germination and growth.
(§3) Approximately 14 days after planting and treating, the plants were observed and herbicidal efficacy recorded as percent inhibition by comparison with untreated plants.
(§4) The plant species usually regarded as weeds which were utilized in the tests are identified in the tables below according to the following legend, in which “d” indicates a dicotyledonous species and “m” a monocotyledonous species. All monocotyledonous species included in the tests herein are grasses.

POROL = test: Pre-emergence herbicidal activity on POROL (common purslane); assay type: in vivo, Portulaca oleracea
Source text: as §1, §2, §3, §4

SOLNI = test: Pre-emergence herbicidal activity on SOLNI (black nightshade); assay type: in vivo, Solanum nigrum
Source text: as §1, §2, §3, §4

DIGSA = test: Pre-emergence herbicidal activity on DIGSA (large crabgrass); assay type: in vivo, Digitaria sanguinalis
Source text: as §1, §2, §3, §4

CHEAL = test: Pre-emergence herbicidal activity on CHEAL (common lambsquarters); assay type: in vivo, Chenopodium album
Source text: as §1, §2, §3, §4

ECHCG = test: Pre-emergence herbicidal activity on ECHCG (barnyardgrass); assay type: in vivo, Echinochloa crus-galli
Source text: as §1, §2, §3, §4

DATST = test: Pre-emergence herbicidal activity on DATST (jimsonweed); assay type: in vivo, Datura stramonium
Source text: as §1, §2, §3, §4

SETFA = test: Pre-emergence herbicidal activity on SETFA (giant foxtail); assay type: in vivo, Setaria faberi
Source text: as §1, §2, §3, §4

BRAPP = test: Pre-emergence herbicidal activity on BRAPP (broadleaf signalgrass); assay type: in vivo, Brachiaria platyphylla
Source text: as §1, §2, §3, §4

AMARE = test: Pre-emergence herbicidal activity on AMARE (redroot pigweed); assay type: in vivo, Amaranthus retroflexus
Source text: as §1, §2, §3, §4

CIRAR = test: Pre-emergence herbicidal activity on CIRAR (canada thistle, seedling); assay type: in vivo, Cirsium arvense
Source text: as §1, §2, §3, §4

SORHA = test: Pre-emergence herbicidal activity on SORHA (johnsongrass, seedling); assay type: in vivo, Sorghum halepense
Source text: as §1, §2, §3, §4

PANMI = test: Pre-emergence herbicidal activity on PANMI (wild proso millet); assay type: in vivo, Panicum miliaceum
Source text: as §1, §2, §3, §4

CONAR = test: Pre-emergence herbicidal activity on CONAR (field bindweed); assay type: in vivo, Convolvulus arvensis
Source text: as §1, §2, §3, §4

ABUTH = test: Pre-emergence herbicidal activity on ABUTH (velvetleaf); assay type: in vivo, Abutilon theophrasti
Source text: as §1, §2, §3, §4

SMILES | Pre-emergence activity (GR80) on PANDI (PANDI) | Pre-emergence activity (GR80) on PORAL (POROL) [g/ha] | Pre-emergence activity (GR80) on SOLNI (SOLNI) | Pre-emergence activity (GR80) on DIGSA (DIGSA) | Pre-emergence activity (GR80) on CHEAL (CHEAL) [g/ha] | Pre-emergence activity (GR80) on ECHCG (ECHCG) | Pre-emergence activity (GR80) on DATST (DATST) | Pre-emergence activity (GR80) on SETFA (SETFA) | Pre-emergence activity (GR80) on BRAPP (BRAPP) | Pre-emergence activity (GR80) on AMARE (AMARE) [g/ha] | Pre-emergence activity (GR80) on CIRAR (CIRAR) | Pre-emergence activity (GR80) on SORHA (SORHA) | Pre-emergence activity (GR80) on PANMI (PANMI) | Pre-emergence activity (GR80) on CONAR (CONAR) | Pre-emergence activity (GR80) on ABUTH (ABUTH)
Cc1ccccc1C(=O)NC(C)CNC(=O)c1cccc(C(F)(F)F)c1 (centres unmarked) [Example 109] | 750 g/ha | 750 | 750 g/ha | 250 g/ha | 750 | phyto | 500 g/ha | 750 g/ha | * (Where herbicidal activity was evident but 80% inhibition was not achieved at the highest rate tested (typically 1000 g/ha), an asterisk (*) is shown) | 250 | 750 g/ha | * (Where herbicidal activity was evident but 80% inhibition was not achieved at the highest rate tested (typically 1000 g/ha), an asterisk (*) is shown) | 1000 g/ha | phyto | phyto
Cc1cccc(C(=O)NC(C)CNC(=O)c2cccc(C(F)(F)F)c2)c1Cl (centres unmarked) [Example 65] | 125 g/ha | 125 | 500 g/ha | 250 g/ha | 32 | 500 g/ha | 250 g/ha | 250 g/ha | 500 g/ha | 125 | 125 g/ha | * (Where herbicidal activity was evident but 80% inhibition was not achieved at the highest rate tested (typically 1000 g/ha), an asterisk (*) is shown) | 750 g/ha | 250 g/ha | 250 g/ha
Cc1cccc(C(=O)NC(C)CNC(=O)c2cccc(C(F)(F)F)c2)c1C (centres unmarked) [Example 67] | 500 g/ha | 500 |  | 500 g/ha | 250 | * (Where herbicidal activity was evident but 80% inhibition was not achieved at the highest rate tested (typically 1000 g/ha), an asterisk (*) is shown) | 500 g/ha | 750 g/ha | 1000 g/ha | 500 | 500 g/ha |  |  | 1000 g/ha | 500 g/ha
CC(CNC(=O)c1cccc(C(F)(F)F)c1)NC(=O)c1cc(C(F)(F)F)ccc1Cl (centres unmarked) [Example 9] | 500 g/ha | 125 | 500 g/ha | 500 g/ha | 500 | phyto | 500 g/ha | 1000 g/ha | phyto | 125 | 750 g/ha | * (Where herbicidal activity was evident but 80% inhibition was not achieved at the highest rate tested (typically 1000 g/ha), an asterisk (*) is shown) | phyto |  | phyto
Cc1ccc(C)c(C(=O)NC(C)CNC(=O)c2cccc(C(F)(F)F)c2)c1 (centres unmarked) [Example 64] | 250 g/ha | 250 | 250 g/ha | 250 g/ha | 250 | 1000 g/ha | 1000 g/ha | 1000 g/ha | 500 g/ha | 250 | 250 g/ha | * (Where herbicidal activity was evident but 80% inhibition was not achieved at the highest rate tested (typically 1000 g/ha), an asterisk (*) is shown) | 500 g/ha |  | 500 g/ha
CC(CNC(=O)c1cccc(C(F)(F)F)c1)NC(=O)c1cccc(C(F)(F)F)c1I (centres unmarked) [Example 15] | phyto | 500 | * (Where herbicidal activity was evident but 80% inhibition was not achieved at the highest rate tested (typically 1000 g/ha), an asterisk (*) is shown) | phyto | 125 | phyto | * (Where herbicidal activity was evident but 80% inhibition was not achieved at the highest rate tested (typically 1000 g/ha), an asterisk (*) is shown) | phyto |  | 64 | phyto |  |  | phyto | 
CC(CNC(=O)c1cccc(Br)c1)NC(=O)c1cccc(C(F)(F)F)c1F (centres unmarked) [Example 152] |  | 125 | 500 g/ha | 500 g/ha | 250 | 750 g/ha | 750 g/ha |  |  | 250 | 250 g/ha |  |  |  | 750 g/ha
C[C@H](CNC(=O)c1cccc(C(F)(F)F)c1)NC(=O)Oc1cccc(C(F)(F)F)c1 [Example 229, R—N-[1-methyl-2-(3-trifluoromethyl)phenylcarbonylamino]ethyl-3-(trifluoromethyl)phenylcarbamate] | 300 g/ha | 100 | 1000 g/ha | 1000 g/ha | 300 | phyto | phyto | phyto |  | 300 | 300 g/ha | phyto | phyto | phyto | * (Where herbicidal activity was evident but 80% inhibition was not achieved at the highest rate tested (typically 1000 g/ha), an asterisk (*) is shown)
